In patent publication US9586961B2, “Homopiperazine derivatives as protein tyrosine kinase inhibitors and pharmaceutical use thereof” (LEO PHARMA A/S, priority 2010, dated 2017):

Assays:
Type in all cases: biochemical
JAK2 = molecular target: T1, JAK2 (Homo sapiens, UniProt O60674); assay: JAK2 kinase assay (HTRF, inhibition of phosphorylation of a synthetic peptide); settings: catalytic domain, His-tag; 4 μM ATP (Km); read-out: JAK2 kinase inhibitory activity (EC50)
T1 construct: All four purified enzymes contain only the catalytic domain; His (N); purchased Carna Biosciences, Inc; host or cells: baculovirus expression system
Summary of the method: (§1)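 Baculovirus-expressed human catalytic domains (GST-JAK1, GST-TYK2, His-JAK2, His-JAK3) phosphorylated 1 μM TK substrate-biotin at ATP Km (JAK1 7 μM, JAK2 4 μM, JAK3 2 μM, TYK2 13 μM) in pH 7.0 Hepes for 20-30 min at RT, 0.75% DMSO. EDTA stop, then overnight streptavidin-XL665/cryptate-antibody detection and HTRF read.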

JAK1 = molecular target: T2, JAK1 (Homo sapiens, UniProt P23458); assay: JAK1 kinase assay (HTRF, inhibition of phosphorylation of a synthetic peptide); settings: catalytic domain aa 850-1154, GST-tag; 7 μM ATP (Km); read-out: JAK1 kinase inhibitory activity (EC50)
T2 construct: JAK1 (aa 850-1154) and TYK2 (aa 871-1187) are expressed with an N-terminally fused GST-tag; GST (N); purchased Carna Biosciences, Inc; host or cells: baculovirus expression system
Summary of the method: as §1

JAK3 = molecular target: T3, JAK3 (Homo sapiens, UniProt P52333); assay: JAK3 kinase assay (HTRF, inhibition of phosphorylation of a synthetic peptide); settings: catalytic domain, His-tag; 2 μM ATP (Km); read-out: JAK3 kinase inhibitory activity (EC50)
T3 construct: All four purified enzymes contain only the catalytic domain; His (N); purchased Carna Biosciences, Inc; host or cells: baculovirus expression system
Summary of the method: as §1

TYK2 = molecular target: T4, TYK2 (Homo sapiens, UniProt P29597); assay: TYK2 kinase assay (HTRF, inhibition of phosphorylation of a synthetic peptide); settings: catalytic domain aa 871-1187, GST-tag; 13 μM ATP (Km); read-out: TYK2 kinase inhibitory activity (EC50)
T4 construct: JAK1 (aa 850-1154) and TYK2 (aa 871-1187) are expressed with an N-terminally fused GST-tag; GST (N); purchased Carna Biosciences, Inc; host or cells: baculovirus expression system
T4 sequence (P29597 871-1187): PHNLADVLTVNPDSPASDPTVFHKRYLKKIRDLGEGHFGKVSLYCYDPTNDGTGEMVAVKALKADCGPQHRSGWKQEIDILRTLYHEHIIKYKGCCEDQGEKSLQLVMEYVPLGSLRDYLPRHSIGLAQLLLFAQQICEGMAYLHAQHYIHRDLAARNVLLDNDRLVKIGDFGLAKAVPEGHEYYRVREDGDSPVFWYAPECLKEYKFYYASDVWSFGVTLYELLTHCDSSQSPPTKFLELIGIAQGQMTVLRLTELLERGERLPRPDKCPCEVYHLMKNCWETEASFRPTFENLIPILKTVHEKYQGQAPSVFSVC
Protocol: JAK1, JAK2, JAK3 and TYK2 Kinase Assays:
Human baculovirus-expressed JAK1, 2, 3 and TYK2 were purchased from Carna Biosciences, Inc. All four purified enzymes contain only the catalytic domain. JAK1 (aa 850-1154) and TYK2 (aa 871-1187) are expressed with an N-terminally fused GST-tag, and JAK2 and JAK3 with an N-terminally fused His-tag. Inhibition of phosphorylation of a synthetic peptide was measured in an HTRF-based assay using the TK substrate-Biotin from the CisbioHTRFKinEASE TK kit. First, 2 μl of TK solution (TK substrate-biotin in kinase buffer [1× enzymatic buffer from HTRFKinEASE TK kit, 1 mM DTT]) is added to a plate containing 1 μl prediluted compound (final assay concentration DMSO: 0.75%). Then, 5 μl kinase-ATP mix (prepared in kinase buffer) is added to the wells and the plates are incubated at RT for 20-30 min. For all four kinases a concentration of ATP that corresponded to the Km for ATP was used. The final concentrations of buffers, substrate, kinase and ATP were: JAK1: 50 mMHepes buffer pH 7.0, 0.01% BSA, 10 mM MgCl2, 1 mM DTT, 7 μM ATP, 50 nMSEB, 1 μM TK Substrate-Biotin and 5 ng JAK1; JAK2: 50 mM Hepes buffer pH 7.0, 0.01% BSA, 5 mM MgCl2, 1 mM DTT, 4 μM ATP, 1 μM TK Substrate-Biotin and 0.1 ng JAK2; JAK3: 50 mMHepes buffer pH 7.0, 0.01% BSA, 5 mM MgCl2, 1 mM DTT, 2 μM ATP, 1 μM TK Substrate-Biotin and 0.3 ng JAK3; TYK2: 50 mMHepes buffer pH 7.0, 0.01% BSA, 5 mM MgCl2, 1 mM DTT, 13 μM ATP, 50 nMSEB, 1 μM TK Substrate-Biotin and 0.8 ng TYK2. Thereafter, the kinase reaction is stopped by adding 4 μl detection mix (final concentrations: 50 mM Hepes buffer pH 7.0, 0.01% BSA, 0.8 M KF, 20 mM EDTA, 42 nM Streptavidin-XL665 and 1:400 STKAbCryptate) and the plates are incubated overnight in the dark. The HTRF signal is read using an Envision plate reader.

T3 sequence (P52333 822-1111 limits assumed): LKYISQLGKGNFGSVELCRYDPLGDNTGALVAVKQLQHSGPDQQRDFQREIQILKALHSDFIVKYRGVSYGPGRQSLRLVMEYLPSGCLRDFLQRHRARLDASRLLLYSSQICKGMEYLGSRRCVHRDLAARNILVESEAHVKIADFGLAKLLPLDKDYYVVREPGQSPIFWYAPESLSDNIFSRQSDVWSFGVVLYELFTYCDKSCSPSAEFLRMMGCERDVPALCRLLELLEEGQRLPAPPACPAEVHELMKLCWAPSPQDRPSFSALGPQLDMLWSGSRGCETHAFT
T2 sequence (P23458 850-1154): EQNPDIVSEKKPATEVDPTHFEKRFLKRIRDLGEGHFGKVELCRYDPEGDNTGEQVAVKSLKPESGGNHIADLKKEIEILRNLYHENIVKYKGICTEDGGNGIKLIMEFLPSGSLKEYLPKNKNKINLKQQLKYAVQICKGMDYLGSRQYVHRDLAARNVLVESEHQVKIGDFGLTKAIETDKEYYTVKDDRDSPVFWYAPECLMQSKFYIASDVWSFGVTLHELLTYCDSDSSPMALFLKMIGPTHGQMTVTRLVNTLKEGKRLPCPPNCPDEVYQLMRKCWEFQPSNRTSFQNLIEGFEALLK
T1 sequence (O60674 849-1124 limits assumed): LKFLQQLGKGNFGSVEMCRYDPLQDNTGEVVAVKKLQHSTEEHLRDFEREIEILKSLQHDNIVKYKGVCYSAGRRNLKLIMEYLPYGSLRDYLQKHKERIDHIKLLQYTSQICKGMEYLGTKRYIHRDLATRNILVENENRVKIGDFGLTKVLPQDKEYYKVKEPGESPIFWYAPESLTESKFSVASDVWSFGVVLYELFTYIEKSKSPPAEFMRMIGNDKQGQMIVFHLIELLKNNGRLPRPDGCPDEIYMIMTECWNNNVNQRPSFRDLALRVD

| Structure (SMILES) | EC50 (JAK2) [µM] | EC50 (JAK1) [µM] | EC50 (JAK3) [µM] | EC50 (TYK2) [µM] |
| --- | --- | --- | --- | --- |
| N#Cc1ccc(CC(=O)N2CCN(c3ncnc4[nH]ccc34)CC3(CC3)C2)cc1 [Example 10, 4-{2-oxo-2-[8-(7H-pyrrolo[2,3-d]pyrimidin-4-yl)-5,8-diazaspiro[2.6]non-5-yl]ethyl}benzonitrile] | < 0.1 | < 0.1 | < 0.1 | 0.1 to 1 |
| N#CCc1ccc(C(=O)N2CCN(c3ncnc4[nH]ccc34)CC3(CC3)C2)cc1 [Example 12, {4-[8-(7H-pyrrolo[2,3-d]pyrimidin-4-yl)-5,8-diazaspiro[2.6]nonane-5-carbonyl]phenyl}acetonitrile] | 0.1 to 1 | 0.1 to 1 | > 1 | > 1 |
| N#CCOc1cccc(C(=O)N2CCN(c3ncnc4[nH]ccc34)CC3(CC3)C2)c1 [Example 14, 2-[3-[5-(7H-pyrrolo[2,3-d]pyrimidin-4-yl)-5,8-diazaspiro[2.6]nonane-8-carbonyl]phenoxy]acetonitrile] | 0.1 to 1 | 0.1 to 1 | > 1 | > 1 |
| N#CCOc1ccc(C(=O)N2CCN(c3ncnc4[nH]ccc34)CC3(CC3)C2)cc1 [Example 15, 2-[4-[5-(7H-pyrrolo[2,3-d]pyrimidin-4-yl)-5,8-diazaspiro[2.6]nonane-8-carbonyl]phenoxy]acetonitrile] | 0.1 to 1 | 0.1 to 1 | 0.1 to 1 | > 1 |
| N#CCOc1cccc(CC(=O)N2CCN(c3ncnc4[nH]ccc34)CC3(CC3)C2)c1 [Example 17, 2-[3-[2-oxo-2-[5-(7H-pyrrolo[2,3-d]pyrimidin-4-yl)-5,8-diazaspiro[2.6]nonan-8-yl]ethyl]phenoxy]acetonitrile] | 0.1 to 1 | 0.1 to 1 | 0.1 to 1 | > 1 |
| O=C(c1cc2ccccc2s1)N1CCN(c2ncnc3[nH]ccc23)CC2(CC2)C1 [Example 18, benzothiophen-2-yl-[5-(7H-pyrrolo[2,3-d]pyrimidin-4-yl)-5,8-diazaspiro[2.6]nonan-8-yl]methanone] | 0.1 to 1 | < 0.1 | 0.1 to 1 | > 1 |
| CNS(=O)(=O)c1csc(C(=O)N2CCN(c3ncnc4[nH]ccc34)CC3(CC3)C2)c1C [Example 23, N,4-dimethyl-5-[5-(7H-pyrrolo[2,3-d]pyrimidin-4-yl)-5,8-diazaspiro[2.6]nonane-8-carbonyl]thiophene-3-sulfonamide] | < 0.1 | 0.1 to 1 | 0.1 to 1 | > 1 |
| Cc1sc(C(=O)N2CCN(c3ncnc4[nH]ccc34)CC3(CC3)C2)cc1S(N)(=O)=O [Example 24, 2-methyl-5-[5-(7H-pyrrolo[2,3-d]pyrimidin-4-yl)-5,8-diazaspiro[2.6]nonane-8-carbonyl]thiophene-3-sulfonamide] | < 0.1 | < 0.1 | < 0.1 | 0.1 to 1 |

The remaining lines, values ahead:

| EC50 (JAK2) [µM] | EC50 (JAK1) [µM] | EC50 (JAK3) [µM] | EC50 (TYK2) [µM] | Structure (SMILES) |
| --- | --- | --- | --- | --- |
| < 0.1 | 0.1 to 1 | 0.1 to 1 | > 1 | N#Cc1cccc(CC(=O)N2CCN(c3ncnc4[nH]ccc34)CC3(CC3)C2)c1 [Example 9, 3-{2-oxo-2-[8-(7H-pyrrolo[2,3-d]pyrimidin-4-yl)-5,8-diazaspiro[2.6]non-5-yl]ethyl}benzonitrile] |
| 0.1 to 1 | > 1 | 0.1 to 1 | > 1 | CC(C)(C#N)C(=O)N1CCN(c2ncnc3[nH]ccc23)CC2(CC2)C1 [Example 11, 2,2-Dimethyl-3-oxo-3-[8-(7H-pyrrolo[2,3-d]pyrimidin-4-yl)-5,8-diazaspiro[2.6]non-5-yl]propionitrile] |
| < 0.1 | 0.1 to 1 | > 1 | > 1 | N#Cc1ccc(C(F)(F)C(=O)N2CCN(c3ncnc4[nH]ccc34)CC3(CC3)C2)cc1 [Example 13, 4-[1,1-difluoro-2-oxo-2-[5-(7H-pyrrolo[2,3-d]pyrimidin-4-yl)-5,8-diazaspiro[2.6]nonan-8-yl]ethyl]benzonitrile] |
| < 0.1 | < 0.1 | 0.1 to 1 | > 1 | N#CCOc1ccc(CC(=O)N2CCN(c3ncnc4[nH]ccc34)CC3(CC3)C2)cc1 [Example 16, 2-[4-[2-oxo-2-[5-(7H-pyrrolo[2,3-d]pyrimidin-4-yl)-5,8-diazaspiro[2.6]nonan-8-yl]ethyl]phenoxy]acetonitrile] |
| < 0.1 | 0.1 to 1 | 0.1 to 1 | > 1 | N#Cc1csc(C(=O)N2CCN(c3ncnc4[nH]ccc34)CC3(CC3)C2)c1 [Example 19, 5-[5-(7H-pyrrolo[2,3-d]pyrimidin-4-yl)-5,8-diazaspiro[2.6]nonane-8-carbonyl]thiophene-3-carbonitrile] |
| < 0.1 | < 0.1 | < 0.1 | 0.1 to 1 | NS(=O)(=O)c1ccc(CC(=O)N2CCN(c3ncnc4[nH]ccc34)CC3(CC3)C2)cc1 [Example 20, 4-[2-oxo-2-[5-(7H-pyrrolo[2,3-d]pyrimidin-4-yl)-5,8-diazaspiro[2.6]nonan-8-yl]ethyl]benzenesulfonamide] |
| 0.1 to 1 | 0.1 to 1 | 0.1 to 1 | > 1 | O=C(c1cc2c(s1)CCC2)N1CCN(c2ncnc3[nH]ccc23)CC2(CC2)C1 [Example 21, 5,6-dihydro-4H-cyclopenta[b]thiophen-2-yl-[5-(7H-pyrrolo[2,3-d]pyrimidin-4-yl)-5,8-diazaspiro[2.6]nonan-8-yl]methanone] |
| 0.1 to 1 | < 0.1 | 0.1 to 1 | > 1 | COc1csc(C(=O)N2CCN(c3ncnc4[nH]ccc34)CC3(CC3)C2)c1 [Example 22, (4-methoxy-2-thienyl)-[5-(7H-pyrrolo[2,3-d]pyrimidin-4-yl)-5,8-diazaspiro[2.6]nonan-8-yl]methanone] |
| < 0.1 | 0.1 to 1 | 0.1 to 1 | > 1 | Cc1c(S(N)(=O)=O)csc1C(=O)N1CCN(c2ncnc3[nH]ccc23)CC2(CC2)C1 [Example 25, 4-methyl-5-[5-(7H-pyrrolo[2,3-d]pyrimidin-4-yl)-5,8-diazaspiro[2.6]nonane-8-carbonyl]thiophene-3-sulfonamide] |
| < 0.1 | 0.1 to 1 | 0.1 to 1 | > 1 | CNS(=O)(=O)c1cc(C(=O)N2CCN(c3ncnc4[nH]ccc34)CC3(CC3)C2)sc1C [Example 26, N,2-dimethyl-5-[5-(7H-pyrrolo[2,3-d]pyrimidin-4-yl)-5,8-diazaspiro[2.6]nonane-8-carbonyl]thiophene-3-sulfonamide] |
| < 0.1 | 0.1 to 1 | < 0.1 | > 1 | NS(=O)(=O)c1csc(C(=O)N2CCN(c3ncnc4[nH]ccc34)CC3(CC3)C2)c1 [Example 27, 5-[5-(7H-pyrrolo[2,3-d]pyrimidin-4-yl)-5,8-diazaspiro[2.6]nonane-8-carbonyl]thiophene-3-sulfonamide] |
